Test results published in US6562806B1, “Pyrrolobenzodiazepines” (Spirogen Limited, priority 1998, dated 2003).
Where two headings read alike, the source gives them in different places.

Legend:
SW1116 cells = assay: Nitroreductase-activation cytotoxicity, SRB assay, SW1116 cells; assay type: cell-based, human
Description: (§1) Compound 7, synthesized according to example 1, was evaluated in two different cell lines, namely SW1116 and LS174T. Both SW1116 and LS174T are human adenocarcinoma colonic cell lines, which were grown at Charing Cross hospital. The cells, at a concentration of 2500 cells/ml, were plated in 96-well microtitre plates, and were incubated at 37° C. for 1 hour with different concentrations of the prodrug, in the presence or absence of E. coli nitroreductase-monoclonal antibody conjugate in phosphate buffer saline (available from Sigma), and NADH (the co-factor necessary for enzyme function) in DMSO. The cells were then washed and incubated for a further 3 days at 37° C. At the end of this period, the cells were fixed (TCA) and stained. The concentration of the remaining viable cells adhering to the plates was quantified by a sulforhodamine B (SRB) dye. The control sets of cells treated with the prodrug alone were used in order to evaluate the cytotoxicity of the compound prior to enzymatic activation.

[1] = tested on: SW1116 and LS174T cell lines; assay: Nitroreductase-activation cytotoxicity, SRB assay, 'same cell lines' (value not assigned to one line); assay type: cell-based, human
Description: as §1

LS174T cells = assay: Nitroreductase-activation cytotoxicity, SRB assay, LS174T cells; assay type: cell-based, human
Description: as §1

K562 cells = assay: MTT growth inhibition of K562 cells by irradiated aliquots; assay type: cell-based, human
Description: An MTT assay was used to evaluate the ability of aliquots of the activated analogues, which were removed at time intervals, to inhibit the growth of chronic human histiocytic leukaemia K562 cells in culture. Following treatment of cells with a range of drug doses, cells were transferred to 96-well microtitre plates, 10^4 cells per well, 8 wells per sample. Plates were incubated at 37° C. in a humidified atmosphere containing 5% CO2. The assay is based on the ability of viable cells to reduce a yellow soluble tetrazolium salt 3-(4,5-dimethylthiazolyl)-2,5-diphenyltetrazolium bromide (MTT), to an insoluble purple formazan precipitate. Following incubation of the plates for 4 days (to allow control cells to increase 10-fold in number), 20 μL of a 5 mg/mL solution of MTT in phosphate-buffered saline was added to each well and the plates were incubated for a further 5 hours. The plates were then centrifuged for 5 minutes at 300 g and the bulk of the medium was removed from the cell pellet. DMSO (200 μL) was added to each well, and the samples agitated to ensure complete mixing. The optical density was then measured at a wavelength of 550 nm on a Titertek Multiscan ELISA plate reader and expressed as a percentage of the control optical density. For each curve, an IC50 value was read as the dose required to reduce the final optical density to 50% of the control value.

[2] = UVA (365 nm) cleavage of photolabile NVOC group monitored by HPLC; assay type: physicochemical
Description: This experiment involved the irradiation of compound 11, see example 3, in DMF at a concentration of 1 mM using a Stratagene UVA Crosslinker(365 nm). Small aliquots (100 μL) were removed at 30 minutes, 1 hour, 2 hours and 3 hours and the cleavageof the photolabile NVOC group was monitored by HPLC, using a Waters C4, 300 angstrom reversed phase column and a mobile phase of 50% methanol/50% water. Compound 11 has a retention time of 11.25 minutes and upon radiation produced a new peak with a retention time of 8.58 minutes. Authentic benzyl DC-81 has an identical retention time of 8.58 minutes. Complete conversion is achieved by 2 hours of irradiation at 365 nm under the conditions employed.

A2780 = assay: Ovarian cell line cytotoxicity, SRB, 96 hours; assay type: cell-based; details: Homo sapiens; A2780, 96 hours
Description: (§2) Compounds 52 (UP 2073) and the comparative compound 55b (UP2090) were evaluated for their cytotoxic activity in ovarian cell lines by Dr Lloyd R. Kelland's group at The Institute of Cancer Research, Sutton, UK. The five cell lines investigated were SKOV-3, A2780/A2780cisR and CH1/CH1cisR (cisR denotes that the cell line is resistant to cisplatin).
(§3) Single viable cells were seeded in growth medium (160 μL) in 96-well microtitre plates and allowed to attach overnight. The test compounds were then dissolved in DMSO (to give 20 mM drug concentrations) immediately prior to adding the cells in quadruplicate wells. The final drug concentrations in the wells ranged from 100 μM to 2.5 nM as follows:100, 25, 10, 2.5, 1 μM, 250, 100, 25, 10, 2.5 nM (drugs were diluted in growth medium and then 40 μL added to the existing well volume of 160 μL to give final concentrations as above). After 96 hours, the medium was removed and the remaining cells fixed by exposure to 10% trichloroacetic acid on ice for 30 minutes. The wells were then washed 3-4 times with tap water, air dried overnight and treated with 100 μL of sulphorhodamine B (0.4%) dissolved in 1% acetic acid. Staining was allowed to continue for 10-15 minutes, then the wells were washed 3-4 times with 1% acetic acid, air dried and then added to Tris base (100 μL of 10 mM). Plates were then shaken and absorbance readings at […] were determined using a plate reader. The IC50 values were calculated from plots of concentration versus percentage absorbance (compared with 8 untreated wells).

A2780cisR = assay: Ovarian cell line cytotoxicity, SRB, 96 hours; assay type: cell-based
Description: as §2, §3

SKOV3 = assay: Ovarian cell line cytotoxicity, SRB, 96 hours; assay type: cell-based; details: Homo sapiens, SK-OV-3; SKOV3, 96 hours
Description: as §2, §3

CH1cisR = assay: Ovarian cell line cytotoxicity, SRB, 96 hours; assay type: cell-based
Description: as §2, §3

CH1 = assay: Ovarian cell line cytotoxicity, SRB, 96 hours; assay type: cell-based; details: Homo sapiens; CH1, 96 hours
Description: as §2, §3

[3] = LS174T, E. coli nitroreductase-antibody conjugate + NADH, read-out: IC50 in the presence of the enzyme and co-factor
[4] = irradiation time 0 hours, DMF at 1 mM initial drug concentration
[5] = irradiation time 0 hours, DMF at 10 mM initial drug concentration

COc1cc2c(cc1OCc1ccccc1)N(C(=O)OCc1ccc([N+](=O)[O-])cc1)C(O)[C@@H]1CCCN1C2=O (stereo partly drawn) [Compound 7, (11aS)-8-benzyloxy-7-methoxy-1,2,3,10,11,11a-hexahydro-11-hydroxy-10-(p-nitrobenzyloxy)carboxy-5H-pyrrolo[2,1-c][1,4]-benzodiazepine-5-one]
IC50 (SW1116 cells; SW1116, E. coli nitroreductase-antibody conjugate + NADH, read-out: IC50 in the presence of the enzyme and co-factor): 1000 to 5000 nM | toxicity of the prodrug alone (SW1116 cells; SW1116 cells, no enzyme, concentrations of up to 500 μM): essentially non-toxic | IC50 ([1]; after addition of enzyme conjugate and NADH, cell line not specified, read-out: IC50 of the nitroreductase-activated prodrug): 1000 to 5000 nM | difference between IC50 of parent drug and nitroreductase-activated prodrug ([1]; parent benzyl DC-81 vs activated prodrug): 20-100 fold | toxicity of the prodrug alone (LS174T cells; LS174T cells, no enzyme, concentrations higher than 100 μM): slight toxicity | IC50 (LS174T cells; [3]): 1000 to 5000 nM

COc1cc2c(cc1OCCCOc1cc3c(cc1OC)C(=O)N1CCC[C@H]1C=N3)N=C[C@@H]1CCCN1C2=O [DSB-120, reference compound]
IC50 (LS174T cells; Homo sapiens, LS174T, read-out: cytotoxicity (IC50) of the parent agent): 0.5 nM | IC50 (K562 cells; Homo sapiens, K562, light or radiation study, dimer series (FIG. 9), irradiation time 0 hours, footnote DMF at 1 mM, FIG. 9 legend methanol): 550 nM

1,1′-[[(Propane-1,3-diyl)dioxy]bis[[2-(2,3-dimethoxy-5-nitrobenzyloxycarboxamido)]bis[(11aS)-7-methoxy-1,2,3,11a-tetrahydro-11-hydroxy-5H-pyrrolo[1,2-c][1,4]benzodiazepine-5-one [Compound 32]
irradiation time to almost complete conversion ([2]; HPLC data (not shown)): ≤ 2 h | irradiation time to complete conversion ([2]; HPLC data (not shown), dimer prodrug experiments): ≤ 5 h | IC50 (K562 cells; dimer series (FIG. 9), irradiation time 0 hours, footnote DMF at 1 mM, FIG. 9 legend methanol): 4500 nM | IC50 (K562 cells; dimer series (FIG. 9), irradiation time 0.5 hours, footnote DMF at 1 mM, FIG. 9 legend methanol): 1900 nM | IC50 (K562 cells; dimer series (FIG. 9), irradiation time 1.0 hours, footnote DMF at 1 mM, FIG. 9 legend methanol): 1750 nM | IC50 (K562 cells; dimer series (FIG. 9), irradiation time 2.0 hours, footnote DMF at 1 mM, FIG. 9 legend methanol): 1250 nM | IC50 (K562 cells; dimer series (FIG. 9), irradiation time 5.0 hours, footnote DMF at 1 mM, FIG. 9 legend methanol): 850 nM

COc1cc2c(cc1OCc1ccccc1)N=C[C@@H]1CCCN1C2=O [benzyl DC-81, reference compound]
IC50 ([1]; same cell lines, same conditions, read-out: IC50 of the parent drug): 8 nM | IC50 (K562 cells; [4]): 500 nM | IC50 (K562 cells; [5]): 500 nM | IC50 (K562 cells; irradiation time 0 hours, FIG. 8: DMF at 1 mM, text says methanol): 500 nM

CC=C1C[C@H]2C(O)N(C(=O)OCc3ccc([N+](=O)[O-])cc3)c3cc(OCc4ccccc4)c(OC)cc3C(=O)N2C1 (stereo partly drawn) [Compound 24, (11aS)-8-benzyloxy-7-methoxy-1,3,10,11,11a-tetrahydro-2-ethylidene-11-hydroxy-10-(p-nitrobenzyloxy)carboxy-5H-pyrrolo[2,1-c][1,4]-benzodiazepine-5-one]
IC50 ([1]; Homo sapiens, after addition of enzyme conjugate and NADH, cell line not specified, read-out: IC50 of the nitroreductase-activated prodrug): 6400 nM | IC50 ([1]; Homo sapiens, no enzyme, average of two experiments, cell line not specified, read-out: IC50 of prodrug alone): 86200 nM | activation factor ([1]; IC50 without / with enzyme conjugate and NADH): approximately 13.5

COc1cc2c(cc1OC)C(=O)N1CCC[C@H]1C=N2 [UP2025]
IC50 (A2780): 64 nM | RF (resistance factor) (A2780cisR; A2780cisR divided by A2780): 2.4 | IC50 (A2780cisR; Homo sapiens, A2780cisR (cisplatin resistant), 96 hours): 155 nM | IC50 (SKOV3): 1700 nM | RF (resistance factor) (CH1cisR; CH1cisR divided by CH1): 1.3 | IC50 (CH1cisR; Homo sapiens, CH1cisR (cisplatin resistant), 96 hours): 110 nM | IC50 (CH1): 82 nM

COc1cc(COC(=O)N2c3cc(OCc4ccccc4)c(OC)cc3C(=O)N3CCC[C@H]3C2O)c([N+](=O)[O-])cc1OC (stereo partly drawn) [Compound 11, (11aS)-8-benzyloxy-7-methoxy-1,2,3,10,11,11a-hexahydro-11-hydroxy-10-(21-nitro-4′,5′-dimethoxybenzyloxy)carboxy-5H-pyrrolo[2,1-c][1,4]-benzodiazepine-5-one]
irradiation time to complete conversion ([2]; DMF, 1 mM, 365 nm, HPLC): ≤ 2 h | IC50 (K562 cells; [4]): 47500 nM | IC50 (K562 cells; [5]): 48500 nM | IC50 (K562 cells; irradiation time 0.5 hours, DMF at 1 mM initial drug concentration): 980 nM | IC50 (K562 cells; irradiation time 0.5 hours, DMF at 10 mM initial drug concentration): 4330 nM | IC50 (K562 cells; irradiation time 0.5 hours, FIG. 8: DMF at 1 mM, text says methanol): 4500 nM | IC50 (K562 cells; irradiation time 1.0 hours, DMF at 1 mM initial drug concentration): 600 nM | IC50 (K562 cells; irradiation time 1.0 hours, DMF at 10 mM initial drug concentration): 2170 nM | IC50 (K562 cells; irradiation time 1.0 hours, FIG. 8: DMF at 1 mM, text says methanol): 4000 nM | IC50 (K562 cells; irradiation time 2.0 hours, DMF at 1 mM initial drug concentration): 600 nM | IC50 (K562 cells; irradiation time 2.0 hours, DMF at 10 mM initial drug concentration): 1750 nM | IC50 (K562 cells; irradiation time 2.0 hours, FIG. 8: DMF at 1 mM, text says methanol): 3200 nM

COc1cc2c(cc1OCCCOc1cc3c(cc1OC)C(=O)N1CCC[C@H]1C(O)N3C(=O)OCc1ccc([N+](=O)[O-])cc1)N(C(=O)OCc1ccc([N+](=O)[O-])cc1)C(O)[C@@H]1CCCN1C2=O (some centres unmarked) [Compound 30]
IC50 (LS174T cells; LS174T, no enzyme, average of two measurements, read-out: IC50 of prodrug alone): 215000 nM | IC50 (LS174T cells; [3]): 13700 nM | activation factor (LS174T cells; LS174T, IC50 without / with enzyme and co-factor): 15-16 fold
